From patent US20230250077A1, “SULFONYLBENZAMIDE DERIVATIVE AND CONJUGATE THEREOF, PREPARATION METHOD THEREFOR AND USE THEREOF” (Jiangsu Hengrui Pharmaceuticals Co., Ltd., priority 2020, published 2023) come the findings set out here.

Marks after values point to notes of the source that are not given here.

For one data set, the system named is SD rats. The data set is described as follows: Toxicity test on SD rats by repeated intravenous administrations for 7 days. Conditions: 1 mg/kg intravenously qd. Format: in vivo, rat. How it is done:
This experiment was performed to evaluate the toxicity of compound 9 and AZD4320 to SD rats by repeated intravenous administrations for 7 days.
30 SD rats, weighing about 180-200 g and aged 6-7 weeks, half male and half female, purchased from Zhejiang Vital River Laboratory Animal Technology Co., Ltd., SPF grade. Animal certification number: 200917Aazz0619000298 and 20200917Aazz0619000104. Production license number: SCXK (Zhejiang) 2019-0001.
Housing conditions: SPF grade, animals were housed in plastic and transparent rat cages, 2-3 per cage. The room temperature was 20-26° C. and the relative humidity was 40%-70%. The illumination was controlled in a 12/12 light/dark cycle. The granulated feed for mice was freely taken in an unlimited amount.
The rats were randomly divided into the following 3 groups: a vehicle control group, a compound 9-1 mg/kg group and a compound AZD4320-1 mg/kg group, with 6 rats in each group, half male and half female.
Dosage of the test sample for the 7-day toxicity test in rats: 1 mg/kg (qd), for 7 consecutive days. Administration route: intravenously, dosing volume: 10 mL/kg, dosing frequency and dosing period: daily in the morning for 7 days.
Vehicle: 1.5% DMA+98.5% (10% HS-15), wherein DMA is N,N-dimethylacetamide (Shanghai Titan Scientific Co., Ltd., Cat #01013630); and HS-15 is polyethylene glycol stearate 15 (Solutol HS15) (Shanghai Xietai Chemical Co., Ltd., Cat #50253404).
Hitachi 7100 automatic biochemical analyzer
Siemens advia 2120i automatic blood cell analyzer
Sysmex ca1500 automatic coagulation analyzer
The detection results were input and statistically processed by Excel of the computer.
Clinical symptoms, food intake and general visual observation results of dissection were not statistically calculated, and indexes such as body weight, organ weight and clinical examination were counted by using T-test.
SD rats were intravenously administered with 1 mg/kg compound 9 or 1 mg/kg AZD4320 at 5 mL/kg for 7 repeated days.

Data set [1] in a line: Pharmacokinetic evaluation in mice (iv, LC/MS/MS plasma). Format: in vivo. Conditions: C57 mice, female, intravenous administration, dose 1 mg/kg (table). How it is done:
The drug concentration in the plasma of the test animals (mice) at different time points after intravenous (iv) administration of compound 10 and AZD4320 was determined by an LC/MS/MS method. The pharmacokinetic behavior of the compounds of the present disclosure in mice was studied and their pharmacokinetic profile was valuated.
18 C57 mice, female, randomly divided into 2 groups, purchased from Zhejiang Vital River Laboratory Animal Technology Co., Ltd, animal production license number: SCXK (Shanghai) 2017-0005.
A certain amount of compound 10 was weighed, dissolved by adding 5% by volume of DMSO and 5% Tween 80 (Shanghai Titan Scientific Co., Ltd.), and then prepared into a 0.1 mg/mL clear solution by adding 90% normal saline. Compound AZD4320 was formulated as with compound 10. […]
The mice were intravenously administered with compound 10, and 0.1 mL of blood was collected before the administration and 5 min, 0.25 h, 0.5 h, 1.0 h, 2.0 h, 4.0 h, 8.0 h, 11.0 h and 24.0 h after the administration, put into an EDTA-K2 anticoagulation tube, centrifuged at 10,000 rpm for 1 min (4° C.). Plasma was separated within 1 hour, and stored at −20° C. for testing. The process from blood collection to centrifugation was performed under an ice bath.
The mice were intravenously administered with compound AZD4320, and 0.1 mL of blood was collected before the administration and 5 min, 0.25 h, 0.5 h, 1.0 h, 2.0 h, 4.0 h, 8.0 h, 11.0 h and 24.0 h after the administration, put into an EDTA-K2 anticoagulation tube, centrifuged at 10,000 rpm for 1 min (4° C.). Plasma was separated within 1 hour, and stored at −20° C. for testing. The process from blood collection to centrifugation was performed under an ice bath.
The content of the test compounds at different concentrations in plasma of mice after the administration was determined: 10 μL of plasma of mice at each time point after the administration was mixed with 200 μL of methanol (containing an internal standard solution camptothecin (100 ng/mL)); the mixture was vortexed for 1 min, and centrifuged for 10 min (18,000 r/min), and 3 μL of supernatant was taken for LC/MS/MS analysis.

The next data set relates to NCI-H146 cells. The data set is described as follows: Inhibition of proliferation of NCI-H146 cells (CellTiter-Glo). The data set is classed as cell-based. Conditions: Homo sapiens, 72 h, 3 days, read-out: Inhibitory activity IC50 (nM) for the proliferation of NCI-H146 cells. How it is done:
(§1) In vitro inhibitory activity for the proliferation of RS4;11 cells and NCI-H146 cells was tested by the following method.
(§2) Reagents used in this experiment: RPMI-1640 medium (HyCLone, Cat #SH30243018); fetal bovine serum (Gibco, Cat #10099-141); pancreatin (Gibco, Cat #25200-072); Cell Titer-Glo (Promega, Cat #G7571).
(§3) Materials used: RS4;11 cells (Nanjing Kebai Biotechnology Co., Ltd, Cat #CBP60641); and NCI-H146 cells (ATCC, Cat #HTB-173).
(§4) The in vitro cell proliferation assay described below can determine the inhibitory activity of the test compounds for the proliferation of RS4;11 cells and NCI-H146 cells.
(§5) RS4;11 cells (or NCI-H146 cells) were cultured in an RPMI-1640 culture medium containing 10% FBS, and were passaged for 2-3 times a week in a passage ratio of 1:3 or 1:5. During passage, the cells were transferred to a centrifuge tube, and centrifuged at 1200 rpm for 3 min. The supernatant was discarded, and fresh culture medium was added to resuspend the cells. 90 μL of cell suspension was added to a 96-well cell culture plate, wherein RS4;11 cells and NCI-H146 cells were added at a density of 2.22×10^5 cells/mL. Only 100 μL of complete medium (RPMI-1640 medium containing 10% FBS) was added to the periphery of the 96-well plate. The plate was incubated in an incubator for 24 h (37° C., 5% CO2).
(§6) The test sample was diluted to a proper concentration gradient with dimethyl sulfoxide as required for the experiment. 5 μL of the solution of the test compound prepared in a gradient concentration was added to 95 μL of fresh culture medium and mixed uniformly, and then 10 μL of the culture medium containing the above compound was added to a cell culture plate. The cell culture plate was incubated in an incubator for 3 days (37° C., 5% CO2). 50 μL of CellTiter-Glo reagent was added into each well of the 96-well cell culture plate. The plate was let stand for 5-10 min away from the light at room temperature. The chemiluminescence signals were read by a microplate reader (BMG Labtech, model: PHERAstar FS) and the data were processed by GraphPad software.
(ATP-based viability assays read luminescence as a measure of living cells.)

In the next data set the target is T1, BCL-2 (Homo sapiens, UniProt P10415).
T1 construct: purchased R&D systems 827-BC-050
T1 sequence (P10415 whole entry): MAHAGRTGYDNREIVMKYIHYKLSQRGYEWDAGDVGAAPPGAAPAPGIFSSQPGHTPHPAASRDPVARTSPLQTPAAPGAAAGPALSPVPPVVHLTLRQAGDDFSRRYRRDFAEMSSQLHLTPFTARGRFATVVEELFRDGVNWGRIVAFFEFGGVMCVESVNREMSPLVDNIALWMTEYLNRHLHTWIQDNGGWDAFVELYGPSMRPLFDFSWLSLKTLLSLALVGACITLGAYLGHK
Kind of data set: Binding activity for BCL-2 (HTRF, biotin-labeled BIM). Conditions: His-tagged BCL-2, biotin-labeled BIM. How it is done: In vitro BCL-2-binding activity was tested by the following method.
Reagents used in this experiment: His-tagged BCL-2 protein (R&D systems, Cat #827-BC-050); biotin-labeled BIM protein (R&D, Cat #3526/1); binding buffer (cisbio, Cat #62DLBDDF); assay buffer (cisbio, Cat #62DB1FDG); MAb anti-6His-Eu cryptate (cisbio, Cat #61HI2KLA); and affinity streptomycin linked XL665 (cisbio, Cat #611SAXLA).
The in vitro binding assay described below can determine the binding activity of test compounds for BCL-2.
(§7) The test compounds were dissolved in dimethyl sulfoxide and diluted to gradient concentrations as required for the experiment, and the compounds at various concentrations formulated in dimethyl sulfoxide were subjected to a 100-fold dilution with a binding buffer. BCL-2 was diluted to the corresponding concentration with a binding buffer solution, and added to a white 384-well plate at 4 μL/well. Then the diluted test compound was added into the white 384-well plate at 2 μL/well. The plate was incubated at 25° C. for 1 h after the mixture was uniformly mixed. Biotin-labeled BIM protein was diluted to the corresponding concentration with a binding buffer, and added to a white 384-well plate at 4 μL/well. The plate was incubated at 25° C. for 2 h after the mixture was uniformly mixed. The MAb anti-6His-Eu cryptate and the affinity streptomycin linked XL665 were each diluted to the corresponding concentration with an assay buffer, and added to a white 384-well plate at 5 μL/well. The plate was incubated at 25° C. for 2-4 h after the mixture was uniformly mixed. The signal values were read with the HTRF program in a microplate reader (BMG Labtech, model: PHERAstar FS).
(In general: Time-resolved FRET reads energy transfer from a long-lived donor to a nearby acceptor.)

For the next data set, the system named is RS4;11 cells. Kind of data set: Inhibition of proliferation of RS4;11 cells (CellTiter-Glo). Conditions: Homo sapiens, 72 h, 3 days, read-out: Inhibitory activity IC50 (nM) for the proliferation of RS4;11 cells. The data set is classed as cell-based. How it is done:
as §1, §2, §3, §4, §5, §6

A further data set concerns the target T2, BCL-xL (Homo sapiens, UniProt Q07817).
T2 construct: purchased R&D 894-BX-050
The data set is described as follows: Binding activity for BCL-xL (HTRF, biotin-labeled BIM). Conditions: His-tagged BCL-xL. Here is the method:
In vitro BCL-xL-binding activity was tested by the following method.
Reagents used in this experiment: His-tagged BCL-xL protein (R&D, Cat #894-BX-050); biotin-labeled BIM protein (R&D, Cat #3526/1); binding buffer (cisbio, Cat #62DLBDDF); assay buffer (cisbio, Cat #62DB1FDG); MAb anti-6His-Eu cryptate (cisbio, Cat #61HI2KLA); and affinity streptomycin linked XL665 (cisbio, Cat #611SAXLA).
The in vitro binding assay described below can determine the binding activity of test compounds for BCL-xL.
as §7, with “BCL-xL” for “BCL-2”, “buffer,” for “buffer solution,”, “to” for “into”

T2 sequence (Q07817 whole entry): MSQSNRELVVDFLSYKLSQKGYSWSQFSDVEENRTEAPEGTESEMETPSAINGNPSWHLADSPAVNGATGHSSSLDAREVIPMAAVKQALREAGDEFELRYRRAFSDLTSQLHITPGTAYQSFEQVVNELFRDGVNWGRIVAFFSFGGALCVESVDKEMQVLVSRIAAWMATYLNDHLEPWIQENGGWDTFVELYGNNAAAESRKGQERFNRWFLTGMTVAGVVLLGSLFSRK

For `CN(CCO)CC[C@H](CSc1ccccc1)Nc1ccc(S(=O)(=O)NC(=O)c2ccc(N3CCC([C@@H](O)c4ccccc4-c4ccc(Cl)cc4)CC3)cc2)cc1S(=O)(=O)C(F)(F)F` [AZD4320, reference compound], the “PLT (10^9/L)” value in the data set on SD rats is on record as 807.50** 10^9/L. For the same compound, in the data set with SD rats (vs vehicle control), the “Effect on platelets (in words)” value is “more significantly reduced”. The “Clearance CLz/F” value in data set [1] is 72.7 mL/min/kg. In addition, the AUC(0-t) in data set [1] (mouse, plasma, read-out: Area under curve AUC0-t) came to 206 ng·h/mL. Besides, the half-life – broadly, how long it takes for the measured level to halve – in data set [1] (mouse, plasma, read-out: Half-life T½ (converted)) was 3.1 h. Besides, the MRT inf in data set [1] (mouse, plasma, read-out: Mean retention time MRT 0-∞) came to 2.4 h. In data set [1] (mouse, plasma, read-out: Plasma Concentration C5 min), the concentration at 5 min was 436 ng/mL.

In the case of `O=C(NS(=O)(=O)c1ccc(N[C@@H](CSc2ccccc2)C[C@@H]2CCCN2CCO)c(S(=O)(=O)C(F)(F)F)c1)c1ccc(N2CCC([C@@H](O)c3ccccc3-c3ccc(C(F)(F)F)cc3)CC2)cc1` [Example 2-13, 4-(4-((R)-hydroxy(4′-(trifluoromethyl)-[1,1′-biphenyl]-2-yl)methyl)piperidin-1-yl)-N-((4-(((R)-1-((S)-1-(2-hydroxyethyl)pyrrolidin-2-yl)-3-(phenylthio)propan-2-yl)amino)-3-((trifluoromethyl)sulfonyl)phenyl)sulfonyl)benzamide], the IC50 with NCI-H146 cells turned out to be 35 nM; with RS4;11 cells, 7 nM. In addition, the figures for the Ki on BCL-2 and at BCL-xL were 0.04 nM and 0.3 nM, respectively.
